According to patent US20100113590A1, “ADAM INHIBITOR” (Shiseido Company, Ltd., priority 2007, published 2010):

System: ADAM
Assay: Inhibition of PMA-induced TNF-α release from U937 cells (index of ADAM inhibition), hTNF-α ELISA
Format: cell-based, human
Conditions: for Inhibition rate (%): U937 cells, 30 min pretreatment, 10 nM PMA for 6 hours, released hTNF-α by ELISA; for suppressing effect on HB-EGF release: statement in words summarising the screening, suggests inhibition of ADAM activity
Experimental: For the ADAM inhibiting effect, the TNF-α which is cut out to be released from the membrane of the U937 cell derived from the human lymphoma through the action of ADAM was used as an index, and the inhibiting effect on the TNF-α release by the agents was assessed. A new ADAM inhibitor was explored by screening different compounds according to the present method.
The U937 cells derived from the human lymphoma were seeded to the 48-well plate adjusting the number of the cells to 1×10^5 cells/0.25 ml and cultured at 37° C. overnight. The medium which contained 5 μg/ml or 30 μg/ml of an ascorbic acid derivative was added and incubated at 37° C. for 30 min. to be pretreated. 10 nM PMA (phorbol ester: 12-O-tetradecanoylphorbol-acetate; Sigma P8139) was then added and cultured at 37° C. for 6 hours. After completion of the treatment, the supernatant of the culture was collected, centrifuged and the cell-free supernatant was cryopreserved at −20° C. The assay of the released hTNF-α was performed using the hTNF-α Duo-Set ELISA kit from R & D Ltd. Each supernatant of the culture was diluted 5-folds with the medium, then […] each was added to the 96-well plate and measured according to the protocol of R & D Ltd. The absorbance at 450-570 nm of each well was measured by the measurement kit and concentrations of the samples were obtained from the standard curve. The inhibition rates were calculated according to the following equation wherein A0 is the absorbance of 0% inhibiting control (the medium containing only PMA), A100 is the absorbance of 100% inhibiting control (only the medium) and AS is the absorbance of the sample.
The inhibition rate (%)=(A0−AS)/(A0−A100)×100

Question: CCCCCCCCCCCCCCCCCCOC1=C(O)[C@@H]([C@@H](O)CO)OC1=O [2-O-octadecyl ascorbic acid] was tested. Which “Inhibition rate (%)” value (5 μg/mL) did it give?
Answer: 15.19%

Question: What about the “Inhibition rate (%)” value (30 μg/mL) of the same compound?
Answer: 82.70%

Question: What about the “suppressing effect on HB-EGF release” value of the same compound?
Answer: high suppressing effect

Question: How did the “Inhibition rate (%)” value (5 μg/mL) turn out when CCCCCCCCCCCCOC1=C(O)[C@@H]([C@@H](O)CO)OC1=O [2-O-dodecyl ascorbic acid] was run?
Answer: 18.25%

Question: And the “Inhibition rate (%)” value (30 μg/mL)?
Answer: 60.07%

Question: What about the “suppressing effect on HB-EGF release” value of the same compound?
Answer: high suppressing effect
